According to ChEMBL document CHEMBL4627344, “Synthesis, biological evaluation and virtual screening of some acridone derivatives as potential anticancer agents” (2020):

Key:
Format in all cases: functional
U-251 [1] = assay: Antiproliferative activity against human U251 cells assessed as inhibition of cell growth at 10 uM measured after 48 hrs by SRB assay relative to control; details: U-251, 48 h, read-out: GI
A498 = assay: Antiproliferative activity against human A498 cells assessed as inhibition of cell growth measured after 48 hrs by SRB assay; details: A498, 48 h
RXF 393 = assay: Antiproliferative activity against human RXF393 cells assessed as inhibition of cell growth measured after 48 hrs by SRB assay; details: RXF 393, 48 h
CAKI-1 [2] = assay: Antiproliferative activity against human CAKI-1 cells assessed as inhibition of cell growth at 10 uM measured after 48 hrs by SRB assay relative to control; details: CAKI-1, 48 h, read-out: GI
NCI-H522 = assay: Antiproliferative activity against human NCI-H522 cells assessed as inhibition of cell growth measured after 48 hrs by SRB assay; details: NCI-H522, 48 h
NCI-H322M = assay: Antiproliferative activity against human NCI-H322M cells assessed as inhibition of cell growth measured after 48 hrs by SRB assay
HCT-15 = assay: Antiproliferative activity against human HCT15 cells assessed as inhibition of cell growth at 10 uM measured after 48 hrs by SRB assay relative to control; details: HCT-15, 48 h, read-out: GI
MDA-MB-468 = assay: Antiproliferative activity against human MDA-MB-468 cells assessed as inhibition of cell growth at 10 uM measured after 48 hrs by SRB assay relative to control; details: MDA-MB-468, 48 h, read-out: GI
MOLT-4 = assay: Antiproliferative activity against human MOLT4 cells assessed as inhibition of cell growth at 10 uM measured after 48 hrs by SRB assay relative to control; details: MOLT-4, 48 h, read-out: GI
KM12 [3] = assay: Antiproliferative activity against human KM12 cells assessed as inhibition of cell growth at 10 uM measured after 48 hrs by SRB assay relative to control; details: KM12, 48 h, read-out: GI
MDA-MB-435 [4] = assay: Antiproliferative activity against human MDA-MB-435 cells assessed as inhibition of cell growth measured after 48 hrs by SRB assay; details: MDA-MB-435, 48 h
OVCAR-3 = assay: Antiproliferative activity against human OVCAR3 cells assessed as inhibition of cell growth at 10 uM measured after 48 hrs by SRB assay relative to control; details: OVCAR-3, 48 h, read-out: GI
M14 = assay: Antiproliferative activity against human M14 cells assessed as inhibition of cell growth at 10 uM measured after 48 hrs by SRB assay relative to control; details: M14, 48 h, read-out: GI
CAKI-1 [5] = assay: Antiproliferative activity against human CAKI-1 cells assessed as inhibition of cell growth measured after 48 hrs by SRB assay; details: CAKI-1, 48 h
LOX IMVI = assay: Antiproliferative activity against human LOXIMVI cells assessed as inhibition of cell growth measured after 48 hrs by SRB assay
SN12C = assay: Antiproliferative activity against human SN12C cells assessed as inhibition of cell growth measured after 48 hrs by SRB assay
COLO 205 = assay: Antiproliferative activity against human COLO205 cells assessed as inhibition of cell growth at 10 uM measured after 48 hrs by SRB assay relative to control; details: COLO 205, 48 h, read-out: GI
DU-145 [6] = assay: Antiproliferative activity against human DU145 cells assessed as inhibition of cell growth measured after 48 hrs by SRB assay; details: DU-145, 48 h
OVCAR-8 [7] = assay: Antiproliferative activity against human OVCAR8 cells assessed as inhibition of cell growth measured after 48 hrs by SRB assay; details: OVCAR-8, 48 h
HCT-116 = assay: Antiproliferative activity against human HCT116 cells assessed as inhibition of cell growth measured after 48 hrs by SRB assay; details: HCT-116, 48 h
SK-MEL-2 = assay: Antiproliferative activity against human SK-MEL-2 cells assessed as inhibition of cell growth measured after 48 hrs by SRB assay; details: SK-MEL-2, 48 h
HL-60(TB) = assay: Antiproliferative activity against human HL-60(TB) cells assessed as inhibition of cell growth at 10 uM measured after 48 hrs by SRB assay relative to control; details: HL-60, 48 h, read-out: GI
KM12 [8] = assay: Antiproliferative activity against human KM12 cells assessed as inhibition of cell growth measured after 48 hrs by SRB assay; details: KM12, 48 h
PC-3 = assay: Antiproliferative activity against human PC3 cells assessed as inhibition of cell growth measured after 48 hrs by SRB assay; details: PC-3, 48 h
NCI/ADR-RES = assay: Antiproliferative activity against human NCI/ADR-RES cells assessed as inhibition of cell growth measured after 48 hrs by SRB assay
UACC-62 [9] = assay: Antiproliferative activity against human UACC62 cells assessed as inhibition of cell growth measured after 48 hrs by SRB assay; details: UACC-62, 48 h
OVCAR-8 [10] = assay: Antiproliferative activity against human OVCAR8 cells assessed as inhibition of cell growth at 10 uM measured after 48 hrs by SRB assay relative to control; details: OVCAR-8, 48 h, read-out: GI
MDA-MB-435 [11] = assay: Antiproliferative activity against human MDA-MB-435 cells assessed as inhibition of cell growth at 10 uM measured after 48 hrs by SRB assay relative to control; details: MDA-MB-435, 48 h, read-out: GI
786-0 = assay: Antiproliferative activity against human 786-0 cells assessed as inhibition of cell growth measured after 48 hrs by SRB assay; details: 786-0, 48 h
SF-539 = assay: Antiproliferative activity against human SF539 cells assessed as inhibition of cell growth measured after 48 hrs by SRB assay; details: SF-539, 48 h
DU-145 [12] = assay: Antiproliferative activity against human DU145 cells assessed as inhibition of cell growth at 10 uM measured after 48 hrs by SRB assay relative to control; details: DU-145, 48 h, read-out: GI
UACC-62 [13] = assay: Antiproliferative activity against human UACC62 cells assessed as inhibition of cell growth at 10 uM measured after 48 hrs by SRB assay relative to control; details: UACC-62, 48 h, read-out: GI
NCI-H23 = assay: Antiproliferative activity against human NCI-H23 cells assessed as inhibition of cell growth measured after 48 hrs by SRB assay; details: NCI-H23, 48 h
SK-OV-3 = assay: Antiproliferative activity against human SKOV3 cells assessed as inhibition of cell growth measured after 48 hrs by SRB assay; details: SK-OV-3, 48 h
U-251 [14] = assay: Antiproliferative activity against human U251 cells assessed as inhibition of cell growth measured after 48 hrs by SRB assay; details: U-251, 48 h
OVCAR-5 = assay: Antiproliferative activity against human OVCAR5 cells assessed as inhibition of cell growth measured after 48 hrs by SRB assay; details: OVCAR-5, 48 h

| SMILES | inhibition of growth at 10 µM (U-251 [1]) [%] | GI50 (A498) [nM] | GI50 (RXF 393) [nM] | inhibition of growth at 10 µM (CAKI-1 [2]) [%] | GI50 (NCI-H522) [nM] | GI50 (NCI-H322M) [nM] | inhibition of growth at 10 µM (HCT-15) [%] | inhibition of growth at 10 µM (MDA-MB-468) [%] | inhibition of growth at 10 µM (MOLT-4) [%] | inhibition of growth at 10 µM (KM12 [3]) [%] | GI50 (MDA-MB-435 [4]) [nM] | inhibition of growth at 10 µM (OVCAR-3) [%] | inhibition of growth at 10 µM (M14) [%] | GI50 (CAKI-1 [5]) [nM] | GI50 (LOX IMVI) [nM] | GI50 (SN12C) [nM] | inhibition of growth at 10 µM (COLO 205) [%] | GI50 (DU-145 [6]) [nM] | GI50 (OVCAR-8 [7]) [nM] | GI50 (HCT-116) [nM] | other results |
| --- | --- | --- | --- | --- | --- | --- | --- | --- | --- | --- | --- | --- | --- | --- | --- | --- | --- | --- | --- | --- | --- |
| COc1ccc2nc3c(cc2c1)C(=O)CC(C(F)(F)F)C3 (stereo not given) | 15.3 | 355 | 562 | 63 | 582 | 1320 | 62.2 | 64.4 | 84.7 | 88.4 | 143 | 94.7 | 91.3 | 690 | 3080 | 823 | 90.9 | 849 | 2040 | 133 | GI50 (SK-MEL-2): 802 nM; inhibition of growth at 10 µM (HL-60(TB)): 115%; GI50 (KM12 [8]): 316 nM; GI50 (PC-3): 835 nM; GI50 (NCI/ADR-RES): 336 nM; GI50 (UACC-62 [9]): 697 nM; inhibition of growth at 10 µM (OVCAR-8 [10]): 60%; inhibition of growth at 10 µM (MDA-MB-435 [11]): 148%; GI50 (786-0): 6570 nM; GI50 (SF-539): 1890 nM; inhibition of growth at 10 µM (DU-145 [12]): 95.7%; inhibition of growth at 10 µM (UACC-62 [13]): 60.2%; GI50 (NCI-H23): 5150 nM |
| COc1ccc2nc3c(cc2c1)C(=O)CC(c1ccccc1)C3 (stereo not given) | 55 | 346 | 440 | 68.7 | 471 | 5780 | 75.2 | 31.7 | 82.2 | 89.2 | 137 | 107 | 90.7 | 525 | 887 | 639 | 98.1 | 593 | 1060 | 432 | GI50 (SK-MEL-2): 777 nM; inhibition of growth at 10 µM (HL-60(TB)): 102%; GI50 (KM12 [8]): 450 nM; GI50 (PC-3): 715 nM; GI50 (NCI/ADR-RES): 408 nM; GI50 (SK-OV-3): 2090 nM; GI50 (UACC-62 [9]): 728 nM; inhibition of growth at 10 µM (OVCAR-8 [10]): 61%; inhibition of growth at 10 µM (MDA-MB-435 [11]): 168%; GI50 (786-0): 4370 nM; GI50 (SF-539): 1150 nM; inhibition of growth at 10 µM (DU-145 [12]): 98.9%; inhibition of growth at 10 µM (UACC-62 [13]): 63.1%; GI50 (NCI-H23): 6180 nM |
| O=C1CC(c2ccccc2)Cc2nc3ccc(Br)cc3cc21 (stereo not given) | 81.9 | 74.5 | 208 | 69.3 | 236 | 623 | 84 | 99.7 | 89.5 | 91.1 | 27.1 | 128 | 89.8 | 207 | 707 | 526 | 136 | 274 | 461 | 51.5 | GI50 (U-251 [14]): 553 nM; GI50 (OVCAR-5): 825 nM; GI50 (SK-MEL-2): 238 nM; inhibition of growth at 10 µM (HL-60(TB)): 128%; GI50 (KM12 [8]): 341 nM; GI50 (PC-3): 254 nM; GI50 (NCI/ADR-RES): 66.9 nM; GI50 (SK-OV-3): 611 nM; GI50 (UACC-62 [9]): 444 nM; inhibition of growth at 10 µM (OVCAR-8 [10]): 75.9%; inhibition of growth at 10 µM (MDA-MB-435 [11]): 140%; GI50 (786-0): 784 nM; GI50 (SF-539): 241 nM; inhibition of growth at 10 µM (DU-145 [12]): 103%; inhibition of growth at 10 µM (UACC-62 [13]): 63.8%; GI50 (NCI-H23): 616 nM |
| O=C1CC(c2ccccc2)Cc2nc3ccc(Cl)cc3cc21 (stereo not given) | 81.2 | 87 | 195 | 70.8 | 314 | 720 | 86.1 | 89.8 | 93.2 | 98.3 | 26.6 | 129 | 91 | 151 | 558 | 533 | 132 | 334 | 534 | 46.8 | GI50 (U-251 [14]): 729 nM; GI50 (OVCAR-5): 1020 nM; GI50 (SK-MEL-2): 320 nM; inhibition of growth at 10 µM (HL-60(TB)): 121%; GI50 (KM12 [8]): 349 nM; GI50 (PC-3): 280 nM; GI50 (NCI/ADR-RES): 64.4 nM; GI50 (SK-OV-3): 845 nM; GI50 (UACC-62 [9]): 333 nM; inhibition of growth at 10 µM (OVCAR-8 [10]): 77.6%; inhibition of growth at 10 µM (MDA-MB-435 [11]): 139%; GI50 (786-0): 838 nM; GI50 (SF-539): 219 nM; inhibition of growth at 10 µM (DU-145 [12]): 99.8%; inhibition of growth at 10 µM (UACC-62 [13]): 70.7%; GI50 (NCI-H23): 517 nM |
| O=C1CC(c2ccccc2)Cc2nc3c(Br)cc(Br)cc3cc21 (stereo not given) | 91.4 | 140 | 91.6 | 98.8 | 137 | 74.8 | 89.7 | 116 | 79.2 | 98 | 211 | 140 | 94.7 | 145 | 758 | 661 | 148 | 82.6 | 507 | 47.8 | GI50 (U-251 [14]): 421 nM; GI50 (OVCAR-5): 461 nM; GI50 (SK-MEL-2): 49.2 nM; inhibition of growth at 10 µM (HL-60(TB)): 95.4%; GI50 (KM12 [8]): 242 nM; GI50 (PC-3): 66.6 nM; GI50 (NCI/ADR-RES): 236 nM; GI50 (SK-OV-3): 102 nM; GI50 (UACC-62 [9]): 338 nM; inhibition of growth at 10 µM (OVCAR-8 [10]): 96%; inhibition of growth at 10 µM (MDA-MB-435 [11]): 124%; GI50 (786-0): 813 nM; GI50 (SF-539): 192 nM; inhibition of growth at 10 µM (DU-145 [12]): 99%; inhibition of growth at 10 µM (UACC-62 [13]): 61.7%; GI50 (NCI-H23): 260 nM |
